Assay results published in patent publication US7220784B2, “Substituted stilbenes and their reactions” (priority 2000, dated 2007).
Like-named read-outs stand apart in the source and are kept apart here.

Columns and labels:
[1] = tested on: K562 human myelogeneous leukaemia cell line; assay: Cytotoxicity/growth inhibition assay (MTT), K562; type: cell-based; conditions: MTT, read-out: K562 IC50
Text: (§1) In addition to the cell lines described in this paper, other established human cell lines (K562, HUVEC, H460, BE, H529, and HT29) were used in the cytotoxicity/growth inhibition assay. • (1) Inhibition of tubulin assembly. The figure quoted is the concentration required to reduce assembly of tubulin by 50%. Tubulin assembly is monitored by light scatter/absorption at 350 nm.
(§2) (2) Competition for the colchicine binding site on tubulin. The figure quoted represents the % of ^3H-colchicine bound following co-incubation of test compound and ^3H-cochicine with isolated tubulin. Where ester pro-drugs were used the experiments were carried out in the presence and absence of porcine liver esterase. • (3) Cytotoxicity/growth inhibition assay. This was carried out by the MTT assay. • (4) Permeability (shape-change) assay in endothelial cells. […] This involved the diffusion of a fluorescently labelled dextran through a barrier of endothelial cells (HUVEC) grown to confluence on a porous membrane. The effect of agents to alter the shape of these cells results in an increase in the permeability of the cells to the dye. The figure represents the increase in permeability over control cultures when drug is added (30 minutes, 1 mM.). • (5) Experiments to study the anti-vascular effects of these agents were carried out as described previously by our group. […] The anti-vascular effects of the agents were monitored by either positron emission tomography (PET) or by histologogical examination following treatment of mice bearing T50:80 murine breast tumours, or H460 human lung tumours. • (6) Anti-tumour efficacy of agents was determined in xenografts of H460 human lung cancer. Animals (n=5) were trated either with 5 daily injections and tumour size measured with time following treatment. • (7) The pharmacokinetic profile of agents was determined in mice following injection with drug. Blood was taken at various times following treatment and analysed by HPLC with UV detection. […] (AND(P)H:quinone oxidoreductace, EC 1.6.99.2). DT-diaphorase is an enzyme over-expressed in a number of human tumours. […] This two-electron reducing enzyme can be used to selectively activate prodrugs within cancers which over-express the enzyme.

HUVEC = assay: Growth inhibition studies using HUVEC; type: cell-based, human; conditions: Homo sapiens, HUVEC
Method: as §1, with “The following assays (1–5) were carried out as described in our paper (Woods, et al, British Journal of Cancer, 71, 705–711 (1995)). In addition” for “In addition”
(§3) (2) Competition for the colchicine binding site on tubulin. The figure quoted represents the % of ^3H-colchicine bound following co-incubation of test compound and ^3H-cochicine with isolated tubulin. Where ester pro-drugs were used the experiments were carried out in the presence and absence of porcine liver esterase. • (3) Cytotoxicity/growth inhibition assay. This was carried out by the MTT assay. • (4) Permeability (shape-change) assay in endothelial cells. This was carried out using a method based on that of Watts et al. (Anticancer Res., 17, 71–75, (1997)). This involved the diffusion of a fluorescently labelled dextran through a barrier of endothelial cells (HUVEC) grown to confluence on a porous membrane. The effect of agents to alter the shape of these cells results in an increase in the permeability of the cells to the dye. The figure represents the increase in permeability over control cultures when drug is added (30 minutes, 1 mM.). • (5) Experiments to study the anti-vascular effects of these agents were carried out as described previously by our group. (Zhao et al, European Journal of Nuclear Medicine, 26, 231–238 (1999)). The anti-vascular effects of the agents were monitored by either positron emission tomography (PET) or by histologogical examination following treatment of mice bearing T50:80 murine breast tumours, or H460 human lung tumours. • (6) Anti-tumour efficacy of agents was determined in xenografts of H460 human lung cancer. Animals (n=5) were trated either with 5 daily injections and tumour size measured with time following treatment. • (7) The pharmacokinetic profile of agents was determined in mice following injection with drug. Blood was taken at various times following treatment and analysed by HPLC with UV detection. The HPLC conditions were isocratic using a 5 micron C18 BDS column (150×4.6) ad eluting with 75% MeOH in water with a detection wavelength of 290 nm. […] (AND(P)H:quinone oxidoreductace, EC 1.6.99.2). DT-diaphorase is an enzyme over-expressed in a number of human tumours. […] This two-electron reducing enzyme can be used to selectively activate prodrugs within cancers which over-express the enzyme.

tubulin [2] = assay: MA IC50 (Tables 12-26, abbreviation not defined); type: biochemical
tubulin [3] = assay: CD IC50 (Tables 12-26, abbreviation not defined); type: binding
K562 [4] = assay: K562 cell cycle analysis; type: cell-based, human; conditions: K562
A2780 = assay: Cytotoxicity/growth inhibition assay (MTT), A2780; type: cell-based; conditions: read-out: A2780 IC50
Method: as §1, with “The following assays (1–5) were carried out as described in our paper (Woods, et al, British Journal of Cancer, 71, 705–711 (1995)). In addition” for “In addition”
as §3

[5] = tested on: P388 murine leukaemia cell line; assay: Cytotoxicity/growth inhibition assay (MTT), P388; type: cell-based; conditions: MTT
Method: as §2

tubulin [6] = tested on: T1, tubulin; assay: Inhibition of tubulin assembly; type: biochemical; conditions: concentration required to reduce assembly of tubulin by 50%
T1 construct: other: concentration required to reduce assembly of tubulin by 50%
Method: as §1, with “The following assays (1–5) were carried out as described in our paper (Woods, et al, British Journal of Cancer, 71, 705–711 (1995)). In addition” for “In addition”

K562 cells = assay: In situ ultra violet irradiation of dosed K562 cells, IC50; type: cell-based, human; conditions: read-out: IC50 K562 (nm)
Method: Previously, the isomerisation study had been performed ex situ, i.e. in a photochemical reactor. However, it was necessary to illustrate the potential of the process as a real therapy by repeating the isomerization in the presence of the caner cells i.e. in situ. […] Following irradiation, the cells were incubated in the normal way and the IC50 values were determined.
These consisted of i) exposing K562 cells only (i.e. cells which were not dosed with any potential drug candidate) to ultra violet light, ii) preventing K562 cells dosed with drug candidate from being exposed to ultra violet light, and iii) preventing K562 cells only (i.e. cells which were not dosed with any potential drug candidate) from being exposed to ultra violet light. […]

[7] = Photocleavage and isomerisation of coupled trans-CA-4 ex situ, composition (HPLC); type: physicochemical; conditions: benzene
Text: The following compound retention times were observed:

K562 [8] = assay: IC50 of aliquots after ex situ irradiation in a photochemical reactor; conditions: for IC50: read-out: IC50 K562, ex situ irradiation in benzene, 400W Hg lamp
[9] = of cells with DNA content = 2 n or >2 n
[10] = irradiation 20. mins [sic] (Table 8)
[11] = irradiation 10.0 mins (Table 8)
[12] = irradiation 12.5 mins (Table 8)

## COc1ccc(/C=C\c2cc(OC)c(OC)c(OC)c2)cc1F [Compound 90]
[1]; Homo sapiens, K562
  IC50: 10 nM
HUVEC
  IC50: 4 nM
Tubulin [2]
  IC50: 85 nM
Tubulin [3]
  IC50: 2800 nM
K562 [4]
  % of cells with DNA content <2 n: 16%
K562 [4]; [9]
  % of cells in G0–G1: 5%
  % of cells in G2-M: 79%
  % of cells in S phase: 16%

## COc1ccc(/C=C\c2cc(OC)c(OC)c(OC)c2)cc1Br [Compound 93]
[1]; Homo sapiens, K562
  IC50: 1 nM
HUVEC
  IC50: 67 nM
Tubulin [2]
  IC50: 400 nM
Tubulin [3]
  IC50: 10000 nM

## COc1ccc(/C=C\c2cc(OC)c(OC)c(OC)c2)cc1OC [Compound 99-03H]
A2780
  IC50: 120 nM
[5]
  IC50: 190 nM
[1]
  IC50: 60 nM
Tubulin [6]
  IC50: 60 µM

## COC(=O)CCCOc1cc([N+](=O)[O-])c(COc2cc(/C=C/c3cc(OC)c(OC)c(OC)c3)ccc2OC)cc1OC [Compound E-8, Methyl 4-[2′-methoxy-4′-({2″-methoxy-5″-[(E)-2′″-3′″,4′″,5′″-trimethoxyphenylethenyl]phenoxy}-methyl)-5′-nitrophenoxy]butanoate]
K562 cells; in situ UV 0 mins (Table 9)
  IC50: > 100000 nM
K562 cells; in situ UV 0.5 mins (Table 9)
  IC50: 1540 nM
K562 cells; in situ UV 1 mins (Table 9)
  IC50: 450 nM
K562 cells; in situ UV 1.5 mins (Table 9)
  IC50: 250 nM
K562 cells; in situ UV 2 mins (Table 9)
  IC50: 130 nM
K562 cells; in situ UV 3 mins (Table 9)
  IC50: 40 nM
K562 cells; in situ UV 4 mins (Table 9)
  IC50: 11 nM
K562 cells; in situ UV 5 mins (Table 9)
  IC50: 9 nM
K562 cells; in situ UV 7.5 mins (Table 9)
  IC50: 5 nM
K562 cells; in situ UV 10 mins (Table 9)
  IC50: 2 nM
K562 cells; in situ UV 12.5 mins (Table 9)
  IC50: 3 nM
K562 cells; in situ UV 15 mins (Table 9)
  IC50: 3 nM
K562 cells; in situ UV 17.5 mins (Table 9)
  IC50: 2 nM
K562 cells; in situ UV 20 mins (Table 9)
  IC50: 2 nM
[7]; irradiation 0 mins (Table 8)
  % coupled trans-CA-4 (E-8): 100%
[7]; [10]
  % cis-CA-4: 9%
  % coupled trans-CA-4 (E-8): 72%
  % trans-CA-4: 19%
[7]; irradiation 0.5 mins (Table 8)
  % coupled trans-CA-4 (E-8): 93%
  % trans-CA-4: 7%
[7]; irradiation 1.0 mins (Table 8)
  % cis-CA-4: 4%
  % coupled trans-CA-4 (E-8): 88%
  % trans-CA-4: 8%
[7]; irradiation 1.5 mins (Table 8)
  % cis-CA-4: 8%
  % coupled trans-CA-4 (E-8): 80%
  % trans-CA-4: 12%
[7]; irradiation 3.0 mins (Table 8)
  % cis-CA-4: 11%
  % coupled trans-CA-4 (E-8): 62%
  % trans-CA-4: 27%
[7]; irradiation 4.0 mins (Table 8)
  % cis-CA-4: 8%
  % coupled trans-CA-4 (E-8): 61%
  % trans-CA-4: 31%
[7]; irradiation 5.0 mins (Table 8)
  % cis-CA-4: 10%
  % coupled trans-CA-4 (E-8): 53%
  % trans-CA-4: 37%
[7]; irradiation 7.5 mins (Table 8)
  % cis-CA-4: 13%
  % coupled trans-CA-4 (E-8): 42%
  % trans-CA-4: 45%
[7]; [11]
  % cis-CA-4: 19%
  % coupled trans-CA-4 (E-8): 34%
  % trans-CA-4: 47%
[7]; [12]
  % cis-CA-4: 45%
  % coupled trans-CA-4 (E-8): 20%
  % trans-CA-4: 35%
K562 [8]; K562
  times less cytotoxic than trans-CA-4: 5
K562 [8]; 0 mins (Table 8)
  IC50: > 150000 nM
K562 [8]; 20. mins as printed (Table 8)
  IC50: 59 nM
K562 [8]; 0.5 mins (Table 8)
  IC50: 14600 nM
K562 [8]; 1.0 mins (Table 8)
  IC50: 450 nM
K562 [8]; 1.5 mins (Table 8)
  IC50: 90 nM
K562 [8]; 3.0 mins (Table 8)
  IC50: 14 nM
K562 [8]; 4.0 mins (Table 8)
  IC50: 12 nM
K562 [8]; 5.0 mins (Table 8)
  IC50: 8 nM
K562 [8]; 7.5 mins (Table 8)
  IC50: 4 nM
K562 [8]; 10.0 mins (Table 8)
  IC50: 6 nM
K562 [8]; 12.5 mins (Table 8)
  IC50: 2 nM
K562 [8]; 15.0 mins (Table 8)
  IC50: 2 nM
K562 [8]; 17.5 mins (Table 8)
  IC50: 4 nM
K562 [8]; 20.0 mins (Table 8)
  IC50: 3 nM
